Measurements taken from PubChem BioAssay (NCI).
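Five concentrations, 48 hours, 96-well plates. TGI: concentration producing complete growth inhibition.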

How the values were obtained:
Experiment in all cases: NCI tumour cell line growth inhibition, 48 h
MCF7 breast = test system: MCF7 breast
HT29 colon = test system: HT29 colon
NCI-H460 lung = test system: NCI-H460 lung
IGROV1 ovarian = test system: IGROV1 ovarian
BT-549 breast = test system: BT-549 breast
A498 renal = test system: A498 renal
ACHN renal = test system: ACHN renal
TK-10 renal = test system: TK-10 renal
OVCAR-5 ovarian = test system: OVCAR-5 ovarian
SF-539 CNS = test system: SF-539 CNS
CCRF-CEM leukemia = test system: CCRF-CEM leukemia
MDA-N = test system: MDA-N
HCT-116 colon = test system: HCT-116 colon
EKVX NSCLC = test system: EKVX NSCLC
HL-60(TB) leukemia = test system: HL-60(TB) leukemia
MALME-3M melanoma = test system: MALME-3M melanoma
SN12C renal = test system: SN12C renal
RPMI-8226 leukemia = test system: RPMI-8226 leukemia
RXF 393 renal = test system: RXF 393 renal
UO-31 renal = test system: UO-31 renal
SNB-19 CNS = test system: SNB-19 CNS
DU-145 prostate = test system: DU-145 prostate
NCI-H23 lung = test system: NCI-H23 lung
SK-MEL-2 melanoma = test system: SK-MEL-2 melanoma
OVCAR-3 ovarian = test system: OVCAR-3 ovarian
786-0 renal = test system: 786-0 renal
UACC-257 melanoma = test system: UACC-257 melanoma
NCI/ADR-RES ovarian = test system: NCI/ADR-RES ovarian
MDA-MB-231 breast = test system: MDA-MB-231 breast
SK-MEL-5 melanoma = test system: SK-MEL-5 melanoma
SF-268 CNS = test system: SF-268 CNS
U251 CNS = test system: U251 CNS
K-562 leukemia = test system: K-562 leukemia
PC-3 prostate = test system: PC-3 prostate
OVCAR-8 ovarian = test system: OVCAR-8 ovarian
MDA-MB-435 = test system: MDA-MB-435
HOP-62 NSCLC = test system: HOP-62 NSCLC
NCI-H226 lung = test system: NCI-H226 lung
SNB-75 CNS = test system: SNB-75 CNS
HOP-92 NSCLC = test system: HOP-92 NSCLC
NCI-H522 lung = test system: NCI-H522 lung
SK-OV-3 ovarian = test system: SK-OV-3 ovarian
UACC-62 melanoma = test system: UACC-62 melanoma
HS 578T breast = test system: HS 578T breast
OVCAR-4 ovarian = test system: OVCAR-4 ovarian
CAKI-1 renal = test system: CAKI-1 renal
M14 melanoma = test system: M14 melanoma
MOLT-4 leukemia = test system: MOLT-4 leukemia
SW-620 colon = test system: SW-620 colon
HCC-2998 colon = test system: HCC-2998 colon
SK-MEL-28 melanoma = test system: SK-MEL-28 melanoma
T-47D breast = test system: T-47D breast
A549 NSCLC = test system: A549 NSCLC
KM12 colon = test system: KM12 colon
COLO 205 colon = test system: COLO 205 colon
SF-295 CNS = test system: SF-295 CNS
LOX IMVI melanoma = test system: LOX IMVI melanoma
HCT-15 colon = test system: HCT-15 colon

Measured: TGI

CN(C)c1ccc(/C=C(\NC(=O)c2ccccc2)C(=O)Nc2ccccc2C(=O)NCc2ccccc2)cc1
93.3 µM: NCI-H522 lung
> 100 µM: all other assays above

COc1ccc(-c2nc(N3CCCC3)no2)cc1
> 72.4 µM: RXF 393 renal
> 71.5 µM: CCRF-CEM leukemia
> 94.8 µM: SNB-75 CNS
> 94 µM: HOP-92 NSCLC
> 75 µM: ACHN renal
> 94.6 µM: NCI-H522 lung
> 100 µM: all other assays above
